Test results as given in article PMC2741501 (Molecular cell, 2009).
Where two headings read alike, the source gives them in different places.

Columns and labels:
[1] = molecular target: T1, CviR (Chromobacterium violaceum, UniProt D3W065); type: cell-based; settings: read-out: IC50, inhibition of CviR-dependent vioA-gfp expression; constant 500 nM C6-HSL
[2] = test system: CviR binding to the vioA promoter; design: species or system Chromobacterium violaceum; settings: for DNA binding of purified CviR loaded with the molecule: vioA promoter probe, CviR 100-500 nM
[3] = molecular target: T1, CviR; settings: for induction of gfp expression through CviR: even at 100 μM; for EC50: read-out: EC50, CviR activation of gfp expression; for EC50 / maximal gfp expression level compared with C6-HSL: E. coli vioA-gfp
[4] = molecular target: V. harveyi LuxN (Vibrio campbellii, UniProt A7MRY4); type: cell-based; settings: read-out: IC50, inhibition of bioluminescence
V. harveyi LuxN, sequence (A7MRY4 whole entry): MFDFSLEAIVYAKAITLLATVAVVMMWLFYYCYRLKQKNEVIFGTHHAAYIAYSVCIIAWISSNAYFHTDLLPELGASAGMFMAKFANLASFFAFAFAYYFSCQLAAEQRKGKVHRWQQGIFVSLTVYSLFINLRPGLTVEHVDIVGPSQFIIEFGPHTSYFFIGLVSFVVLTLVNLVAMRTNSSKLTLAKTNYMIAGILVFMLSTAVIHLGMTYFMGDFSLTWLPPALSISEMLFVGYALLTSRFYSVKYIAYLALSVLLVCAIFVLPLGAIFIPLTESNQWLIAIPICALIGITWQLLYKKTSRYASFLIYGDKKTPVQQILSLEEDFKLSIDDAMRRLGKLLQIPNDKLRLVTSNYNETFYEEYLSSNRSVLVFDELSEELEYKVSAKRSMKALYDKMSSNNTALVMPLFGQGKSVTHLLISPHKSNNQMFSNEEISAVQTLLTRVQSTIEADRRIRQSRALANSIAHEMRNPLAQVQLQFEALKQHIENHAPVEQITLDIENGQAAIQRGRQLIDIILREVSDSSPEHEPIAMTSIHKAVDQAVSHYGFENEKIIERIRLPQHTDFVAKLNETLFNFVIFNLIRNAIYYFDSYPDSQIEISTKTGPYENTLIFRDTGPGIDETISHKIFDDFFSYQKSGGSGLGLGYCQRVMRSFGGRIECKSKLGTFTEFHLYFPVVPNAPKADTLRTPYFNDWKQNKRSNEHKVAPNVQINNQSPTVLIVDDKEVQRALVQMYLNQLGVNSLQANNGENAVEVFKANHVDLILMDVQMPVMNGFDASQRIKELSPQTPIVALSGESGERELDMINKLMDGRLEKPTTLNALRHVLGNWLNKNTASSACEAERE

[5] = test system: C. violaceum killing of C. elegans; assay: C. elegans lifespan assay on C. violaceum lawns; type: in vivo, Caenorhabditis elegans
[6] = test system: CviR; settings: molecule added at 50 μM, E. coli
[7] = V. harveyi BB960 (luxPQ mutant)

T1 sequence (D3W065 1-265): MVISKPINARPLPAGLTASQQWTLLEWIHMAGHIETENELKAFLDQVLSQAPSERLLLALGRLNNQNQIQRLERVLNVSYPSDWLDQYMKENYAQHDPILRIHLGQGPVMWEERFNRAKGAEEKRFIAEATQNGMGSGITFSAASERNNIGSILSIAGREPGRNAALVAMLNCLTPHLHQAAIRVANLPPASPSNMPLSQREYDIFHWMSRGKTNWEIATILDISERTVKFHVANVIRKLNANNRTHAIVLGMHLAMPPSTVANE

| Compound | IC50 [1] [nM] | DNA binding of purified CviR loaded with the molecule [2] | induction of gfp expression through CviR [3] | EC50 [3] [nM] | other results |
| --- | --- | --- | --- | --- | --- |
| CCCCCCCCCCCCCC(=O)N[C@H]1CCOC1=O [C14-HSL] | 268 | no ability to bind DNA | do not induce gfp expression | – | – |
| CCCCCCCCCCCC(=O)N[C@H]1CCOC1=O [C12-HSL] | 494 | no ability to bind DNA | do not induce gfp expression | – | – |
| Chlorolactone [CL] | 377 | no ability to bind DNA | – | – | DNA binding of C6-HSL loaded CviR on addition of antagonist ([2]; 500 nM CviR, antagonist 0-10 μM): DNA binding decreased in a dose dependent manner; IC50 [4, 7]: 14000 nM; IC50 ([4]; V. harveyi JMH624 + 20 nM AHL): 873 nM; IC50 ([4]; wild type V. harveyi BB120): 40000 nM; C. elegans median lifespan ([5]; wild type C. violaceum, CL 20 μM, two days without antagonist): seven; CviR folding and solubility when expressed in presence of molecule [6]: promoted CviR folding and solubility |
| CCCCCC(=O)N[C@H]1CCOC1=O [C6-HSL] | – | binds DNA with high affinity | – | 75 | DNA probe shift of CL loaded CviR on addition of C6-HSL ([2]; 500 nM CviR, 1 μM C6-HSL): modest shift of the DNA probe; C. elegans median lifespan ([5]; C. violaceum cviI mutant, C6-HSL 2 μM): 4 days |
| Chloro-thiolactone [CTL] | 1100 | no ability to bind DNA | – | – | IC50 [4, 7]: 28000 nM; IC50 ([4]; wild type V. harveyi BB120): 150000 nM; CviR folding and solubility when expressed in presence of molecule [6]: promoted CviR folding and solubility |
| CCCC(=O)N[C@H]1CCOC1=O [C4-HSL] | – | – | – | 12000 | maximal gfp expression level compared with C6-HSL [3]: can induce maximal gfp expression |
| CCCCCCCC(=O)N[C@H]1CCOC1=O [C8-HSL] | – | bound DNA with similar affinity to CviR loaded with C6-HSL | – | 30 | maximal gfp expression level compared with C6-HSL [3]: only half of the maximal gfp expression |
| CCCCCCCCCC(=O)N[C@H]1CCOC1=O [C10-HSL] | 208 | does not abolish DNA binding | do not induce gfp expression | – | – |
